Tests used:
[1] = system: lambsquarters; assay: Test C pre-/postemergence herbicide test; type: in vivo, Chenopodium album
How it was run: (§1)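 Herbicidal effect was judged by eye 13 to 15 days after treatment in the greenhouse, using a 0–100 scale against controls. Chemicals in a non-phytotoxic solvent with surfactant were sprayed onto planted loam/sand soil or onto plants 2 to 18 cm tall in a peat-based growing medium.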

[2] = system: galium; assay: Test C pre-/postemergence herbicide test; type: in vivo, Galium aparine
How it was run: as §1

[3] = system: barnyardgrass; assay: Test B flooded paddy test; type: in vivo, Echinochloa crus-galli; conditions: 500 g ai/ha, Flood; scale of 0 to 100 where 0 is no effect and 100 is complete control
How it was run: (§2)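 2-leaf plants; flood 3 cm over soil; compound into paddy water; depth held. Greenhouse 13–15 d. Visual rating vs controls, 0 (no effect) to 100 (complete control); dash = not tested.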

[4] = system: crabgrass, large; assay: Test C pre-/postemergence herbicide test; type: in vivo, Digitaria sanguinalis
How it was run: as §1

[5] = system: velvetleaf; assay: Test C pre-/postemergence herbicide test; type: in vivo, Abutilon theophrasti
How it was run: as §1

[6] = system: rice; assay: Test B flooded paddy test; type: in vivo, Oryza sativa; conditions: 500 g ai/ha, Flood; scale of 0 to 100 where 0 is no effect and 100 is complete control
How it was run: as §2

[7] = system: pigweed; assay: Test C pre-/postemergence herbicide test; type: in vivo, Amaranthus retroflexus
How it was run: as §1

[8] = system: corn; assay: Test C pre-/postemergence herbicide test; type: in vivo, Zea mays
How it was run: as §1

[9] = system: barnyardgrass; assay: Test A pre-/postemergence herbicide test; type: in vivo, Echinochloa crus-galli
How it was run: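 Both application timings used compounds in a non-phytotoxic solvent plus surfactant. Pre-emergence: soil sprayed directly after seeding into loam/sand. Post-emergence: foliage of 2–10 cm seedlings (1–2 leaves) sprayed. Injury rated ~10 days later, 0–100.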

[10] = system: foxtail, giant; assay: Test C pre-/postemergence herbicide test; type: in vivo, Setaria faberii
How it was run: as §1

[11] = system: blackgrass; assay: Test C pre-/postemergence herbicide test; type: in vivo, Alopecurus myosuroides
How it was run: as §1

[12] = Postemergence, 31 g ai/ha, scale 0 to 100 (0 no effect, 100 complete control)
[13] = Postemergence, 62 g ai/ha, scale 0 (no effect) to 100 (complete control)
[14] = Postemergence, 125 g ai/ha, scale 0 to 100 (0 no effect, 100 complete control)
[15] = Postemergence, 250 g ai/ha, scale 0 to 100 (0 no effect, 100 complete control)
[16] = Preemergence, 31 g ai/ha, scale 0 to 100, 0 is no effect and 100 is complete control
[17] = Preemergence, 62 g ai/ha, scale 0 to 100 (0 no effect, 100 complete control)
[18] = Preemergence, 125 g ai/ha, scale 0 to 100
[19] = Postemergence, 125 g ai/ha, visual rating on 0 to 100 scale (0 no effect, 100 complete control), approx. 10 days
[20] = Postemergence, 500 g ai/ha, 0 to 100 scale (0 no effect, 100 complete control)
[21] = Preemergence, 125 g ai/ha, 0 to 100 scale where 0 is no effect and 100 is complete control
[22] = Preemergence, 500 g ai/ha, visual rating on 0 to 100 scale (0 no effect, 100 complete control)
[23] = Preemergence, 125 g ai/ha, scale 0 to 100 (0 no effect, 100 complete control)

Compound: O=C1NCC(c2cccc(Br)c2)C1C(=O)Nc1ccc(F)c(F)c1F (stereo not shown) [Compound 310]
- Plant response rating, Lambsquarters [1, 12]: 25
- Plant response rating, Lambsquarters [1, 13]: 65
- Plant response rating, Lambsquarters [1, 14]: 65
- Plant response rating, Lambsquarters [1, 15]: 70
- Lambsquarters plant response rating [1, 16]: 0
- Lambsquarters plant response rating [1, 17]: 5
- Plant response rating, Lambsquarters [1, 18]: 55
- Plant response rating (scale of 0 to 100), Lambsquarters ([1]; Preemergence, 250 g ai/ha): 80
- Plant response rating, Galium [2, 12]: 35
- Plant response rating, Galium [2, 13]: 50
- Plant response rating, Galium [2, 14]: 50
- Plant response rating, Galium [2, 15]: 65
- Galium plant response rating [2, 16]: 0
- Galium plant response rating [2, 17]: 0
- Plant response rating, Galium [2, 18]: 0
- Plant response rating (scale of 0 to 100), Galium ([2]; Preemergence, 250 g ai/ha): 70
- Plant response rating, Barnyardgrass [3]: 60
- Plant response rating, Crabgrass, Large [4, 12]: 0
- Plant response rating, Crabgrass, Large [4, 13]: 10
- Plant response rating, Crabgrass, Large [4, 14]: 70
- Plant response rating, Crabgrass, Large [4, 15]: 70
- Crabgrass, Large plant response rating [4, 16]: 90
- Crabgrass, Large plant response rating [4, 17]: 90
- Plant response rating, Crabgrass, Large [4, 18]: 95
- Plant response rating (scale of 0 to 100), Crabgrass, Large ([4]; Preemergence, 250 g ai/ha): 95
- Plant response rating, Velvetleaf [5, 12]: 35
- Plant response rating, Velvetleaf [5, 13]: 0
- Plant response rating, Velvetleaf [5, 14]: 0
- Plant response rating, Velvetleaf [5, 15]: 40
- Velvetleaf plant response rating [5, 17]: 0
- Plant response rating, Velvetleaf [5, 18]: 5
- Plant response rating (scale of 0 to 100), Velvetleaf ([5]; Preemergence, 250 g ai/ha): 35
- Plant response rating, Rice [6]: 0
- Plant response rating, Pigweed [7, 12]: 35
- Plant response rating, Pigweed [7, 13]: 40
- Plant response rating, Pigweed [7, 14]: 60
- Plant response rating, Pigweed [7, 15]: 70
- Pigweed plant response rating [7, 16]: 0
- Pigweed plant response rating [7, 17]: 5
- Plant response rating, Pigweed [7, 18]: 20
- Plant response rating (scale of 0 to 100), Pigweed ([7]; Preemergence, 250 g ai/ha): 20
- Plant response rating, Corn [8, 12]: 0
- Plant response rating, Corn [8, 13]: 0
- Plant response rating, Corn [8, 14]: 60
- Plant response rating, Corn [8, 15]: 30
- Corn plant response rating [8, 16]: 0
- Corn plant response rating [8, 17]: 0
- Plant response rating, Corn [8, 18]: 55
- Plant response rating (scale of 0 to 100), Corn ([8]; Preemergence, 250 g ai/ha): 55
- Plant response rating, Barnyardgrass [9, 19]: 90
- Plant response rating, Barnyardgrass [9, 20]: 90
- Plant response rating, Barnyardgrass [9, 21]: 90
- Barnyardgrass plant response rating [9, 22]: 90
- Plant response rating, Foxtail, Giant [10, 12]: 0
- Plant response rating, Foxtail, Giant [10, 13]: 5
- Plant response rating, Foxtail, Giant [10, 14]: 30
- Plant response rating, Foxtail, Giant [10, 15]: 70
- Foxtail, Giant plant response rating [10, 16]: 80
- Foxtail, Giant plant response rating [10, 17]: 85
- Plant response rating, Foxtail, Giant [10, 18]: 90
- Plant response rating (scale of 0 to 100), Foxtail, Giant ([10]; Preemergence, 250 g ai/ha): 90
- Plant response rating, Blackgrass [11, 12]: 0
- Plant response rating, Blackgrass [11, 13]: 0
- Plant response rating, Blackgrass [11, 14]: 5
- Plant response rating, Blackgrass [11, 15]: 5
- Blackgrass plant response rating [11, 16]: 0
- Blackgrass plant response rating [11, 17]: 5
- Plant response rating, Blackgrass [11, 18]: 50
- Plant response rating (scale of 0 to 100), Blackgrass ([11]; Preemergence, 250 g ai/ha): 45

Compound: CN1CC(c2ccc(C(F)(F)F)cc2)C(C(=O)Nc2cccc(F)c2F)C1=O (stereo not shown) [Compound 306]
- Plant response rating, Lambsquarters [1, 12]: 60
- Plant response rating, Lambsquarters [1, 13]: 70
- Plant response rating, Lambsquarters [1, 14]: 90
- Plant response rating, Lambsquarters [1, 15]: 75
- Lambsquarters plant response rating [1, 16]: 55
- Lambsquarters plant response rating [1, 17]: 65
- Plant response rating, Lambsquarters [1, 23]: 75
- Plant response rating (scale of 0 to 100), Lambsquarters ([1]; Preemergence, 250 g ai/ha): 80
- Galium plant response rating [2, 16]: 90
- Galium plant response rating [2, 17]: 60
- Plant response rating, Galium [2, 23]: 90
- Plant response rating (scale of 0 to 100), Galium ([2]; Preemergence, 250 g ai/ha): 90
- Plant response rating, Barnyardgrass [3]: 75
- Plant response rating, Crabgrass, Large [4, 12]: 10
- Plant response rating, Crabgrass, Large [4, 13]: 45
- Plant response rating, Crabgrass, Large [4, 14]: 75
- Plant response rating, Crabgrass, Large [4, 15]: 85
- Crabgrass, Large plant response rating [4, 16]: 90
- Crabgrass, Large plant response rating [4, 17]: 95
- Plant response rating, Crabgrass, Large [4, 23]: 95
- Plant response rating (scale of 0 to 100), Crabgrass, Large ([4]; Preemergence, 250 g ai/ha): 98
- Plant response rating, Velvetleaf [5, 12]: 0
- Plant response rating, Velvetleaf [5, 13]: 10
- Plant response rating, Velvetleaf [5, 14]: 50
- Plant response rating, Velvetleaf [5, 15]: 65
- Velvetleaf plant response rating [5, 17]: 60
- Plant response rating, Velvetleaf [5, 23]: 60
- Plant response rating (scale of 0 to 100), Velvetleaf ([5]; Preemergence, 250 g ai/ha): 65
- Plant response rating, Rice [6]: 50
- Plant response rating, Pigweed [7, 12]: 75
- Plant response rating, Pigweed [7, 13]: 85
- Plant response rating, Pigweed [7, 14]: 85
- Plant response rating, Pigweed [7, 15]: 90
- Pigweed plant response rating [7, 16]: 80
- Pigweed plant response rating [7, 17]: 85
- Plant response rating, Pigweed [7, 23]: 85
- Plant response rating (scale of 0 to 100), Pigweed ([7]; Preemergence, 250 g ai/ha): 90
- Plant response rating, Corn [8, 12]: 0
- Plant response rating, Corn [8, 13]: 0
- Plant response rating, Corn [8, 14]: 0
- Plant response rating, Corn [8, 15]: 20
- Corn plant response rating [8, 16]: 40
- Corn plant response rating [8, 17]: 60
- Plant response rating, Corn [8, 23]: 80
- Plant response rating (scale of 0 to 100), Corn ([8]; Preemergence, 250 g ai/ha): 75
- Plant response rating, Barnyardgrass [9, 19]: 80
- Plant response rating, Barnyardgrass [9, 20]: 80
- Plant response rating, Barnyardgrass [9, 21]: 90
- Barnyardgrass plant response rating [9, 22]: 90
- Plant response rating, Foxtail, Giant [10, 12]: 5
- Plant response rating, Foxtail, Giant [10, 13]: 75
- Plant response rating, Foxtail, Giant [10, 14]: 60
- Plant response rating, Foxtail, Giant [10, 15]: 85
- Foxtail, Giant plant response rating [10, 16]: 90
- Foxtail, Giant plant response rating [10, 17]: 95
- Plant response rating, Foxtail, Giant [10, 23]: 95
- Plant response rating (scale of 0 to 100), Foxtail, Giant ([10]; Preemergence, 250 g ai/ha): 100
- Plant response rating, Blackgrass [11, 12]: 0
- Plant response rating, Blackgrass [11, 13]: 0
- Plant response rating, Blackgrass [11, 14]: 5
- Plant response rating, Blackgrass [11, 15]: 5
- Blackgrass plant response rating [11, 16]: 0
- Blackgrass plant response rating [11, 17]: 30
- Plant response rating, Blackgrass [11, 23]: 60
- Plant response rating (scale of 0 to 100), Blackgrass ([11]; Preemergence, 250 g ai/ha): 90

Compound: O=C1NCC(c2ccc(C(F)(F)F)cc2)C1C(=O)Nc1ccccc1F (stereo not shown) [Compound 231]
- Lambsquarters plant response rating [1, 16]: 40
- Lambsquarters plant response rating [1, 17]: 85
- Plant response rating, Lambsquarters [1, 23]: 85
- Plant response rating (scale of 0 to 100), Lambsquarters ([1]; Preemergence, 250 g ai/ha): 100
- Galium plant response rating [2, 16]: 0
- Galium plant response rating [2, 17]: 85
- Plant response rating, Galium [2, 23]: 90
- Plant response rating (scale of 0 to 100), Galium ([2]; Preemergence, 250 g ai/ha): 90
- Plant response rating, Barnyardgrass [3]: 0
- Crabgrass, Large plant response rating [4, 16]: 90
- Crabgrass, Large plant response rating [4, 17]: 95
- Plant response rating, Crabgrass, Large [4, 23]: 100
- Plant response rating (scale of 0 to 100), Crabgrass, Large ([4]; Preemergence, 250 g ai/ha): 100
- Velvetleaf plant response rating [5, 16]: 10
- Velvetleaf plant response rating [5, 17]: 25
- Plant response rating, Velvetleaf [5, 23]: 35
- Plant response rating (scale of 0 to 100), Velvetleaf ([5]; Preemergence, 250 g ai/ha): 60
- Plant response rating, Rice [6]: 0
- Pigweed plant response rating [7, 16]: 35
- Pigweed plant response rating [7, 17]: 70
- Plant response rating, Pigweed [7, 23]: 85
- Plant response rating (scale of 0 to 100), Pigweed ([7]; Preemergence, 250 g ai/ha): 90
- Corn plant response rating [8, 16]: 0
- Corn plant response rating [8, 17]: 5
- Plant response rating, Corn [8, 23]: 70
- Plant response rating (scale of 0 to 100), Corn ([8]; Preemergence, 250 g ai/ha): 85
- Plant response rating, Barnyardgrass ([9]; 125 g ai/ha, visual rating, 0 to 100 scale, 0 no effect, 100 complete control, approximately 10 days, preemergence): 90
- Plant response rating, Barnyardgrass ([9]; Postemergence, 125 g ai/ha, 0 to 100 scale, 0 is no effect, 100 is complete control): 80
- Barnyardgrass plant response rating (0 to 100 scale, 0 is no effect, 100 is complete control) ([9]; Postemergence, 500 g ai/ha): 90
- Plant response rating, Barnyardgrass ([9]; preemergence, 500 g ai/ha, 0 to 100 scale, 0 is no effect and 100 is complete control): 90
- Foxtail, Giant plant response rating [10, 16]: 90
- Foxtail, Giant plant response rating [10, 17]: 90
- Plant response rating, Foxtail, Giant [10, 23]: 98
- Plant response rating (scale of 0 to 100), Foxtail, Giant ([10]; Preemergence, 250 g ai/ha): 95
- Blackgrass plant response rating [11, 16]: 50
- Plant response rating, Blackgrass ([11]; Preemergence, 62 g ai/ha, scale 0 to 100): 85
- Plant response rating, Blackgrass [11, 23]: 85
- Plant response rating (scale of 0 to 100), Blackgrass ([11]; Preemergence, 250 g ai/ha): 90
